{"source": "patent US9663527B2", "about": "“Factor XIa inhibitors” (Merck Sharp & Dohme Corp., priority 2014, dated 2017)", "note": "Counter-ions that a name gives are not always drawn."}
{"target": "purified human Factor XIa (Homo sapiens (Human), UniProt P03951)", "sequence (P03951 388-625)": "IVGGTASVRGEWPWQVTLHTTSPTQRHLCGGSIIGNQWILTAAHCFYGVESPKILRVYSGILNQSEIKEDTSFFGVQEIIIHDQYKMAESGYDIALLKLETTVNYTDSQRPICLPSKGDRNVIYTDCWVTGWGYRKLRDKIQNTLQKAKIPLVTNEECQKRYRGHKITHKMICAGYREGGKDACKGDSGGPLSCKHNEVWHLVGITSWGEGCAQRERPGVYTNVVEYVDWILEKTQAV", "sequence (P03951 19-387 partner)": "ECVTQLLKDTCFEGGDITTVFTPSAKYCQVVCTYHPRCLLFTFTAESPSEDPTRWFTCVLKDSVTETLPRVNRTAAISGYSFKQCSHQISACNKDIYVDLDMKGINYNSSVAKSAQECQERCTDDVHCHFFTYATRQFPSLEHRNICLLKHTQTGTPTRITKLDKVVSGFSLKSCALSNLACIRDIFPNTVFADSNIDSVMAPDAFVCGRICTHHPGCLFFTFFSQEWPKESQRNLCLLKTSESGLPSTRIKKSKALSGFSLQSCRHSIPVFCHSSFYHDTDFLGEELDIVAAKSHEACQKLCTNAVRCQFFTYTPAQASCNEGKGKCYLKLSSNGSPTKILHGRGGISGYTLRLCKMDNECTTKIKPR", "assay": "Factor XIa Assay", "type": "biochemical", "conditions": "purified human Factor XIa 40 pM, substrate Z-Gly-Pro-Arg-AFC 100 μM, pH 7.4; read-out: hFactor XIa Ki", "protocol": "The effectiveness of a compound of the present invention as an inhibitor of Coagulation Factor XIa can be determined using a relevant purified serine protease, and an appropriate synthetic substrate. The rate of hydrolysis of the chromogenic or fluorogenic substrate by the relevant serine protease was measured both in the absence and presence of compounds of the present invention. Assays were conducted at room temperature or at 37° C. […] A decrease in the rate of fluorescence change in the presence of inhibitor is indicative of enzyme inhibition. Such methods are known to one skilled in the art. The results of this assay are expressed as the inhibitory constant, Ki.\nFactor XIa determinations were made in 50 mM HEPES buffer at pH 7.4 containing 150 mM NaCl, 5 mM CaCl2, and 0.1% PEG 8000 (polyethylene glycol; JT Baker or Fisher Scientific). Determinations were made using purified human Factor XIa at a final concentration of 40 pM (Sekisui Diagnostics) and the synthetic substrate, Z-Gly-Pro-Arg-AFC, TFA salt (Sigma #C0980) at a concentration of 100 μM.\nActivity assays were performed by diluting a stock solution of substrate at least tenfold to a final concentration ≦0.1 Km into a solution containing enzyme or enzyme equilibrated with inhibitor. Times required to achieve equilibration between enzyme and inhibitor were determined in control experiments. Initial velocities of product formation in the absence (Vo) or presence of inhibitor (Vi) were measured. Assuming competitive inhibition, and that unity is negligible compared Km/[S], [I]/e, and [I]/e (where [S], [I], and e respectively represent the total concentrations, of substrate, inhibitor and enzyme), the equilibrium constant (Ki) for dissociation of the inhibitor from the enzyme can be obtained from the dependence of Vo/Vi on [I] shown in the following equation. Vo/Vi=1+[I]/Ki", "units": {"Ki": "µM"}}
{"compound": "NCc1ccc2c(c1)CCN([C@H]1CCCCC(=O)Nc3ccc(F)cc3-c3ccnc1c3)C2=O", "note": "[Example 4, 9-(6-(aminomethyl)-1-oxo-3,4-dihydroisoquinolin-2(1H)-yl)-2^5-fluoro-3-aza-1(4,2)-pyridina-2(1,2)-benzenacyclononaphan-4-one]", "Ki": 0.17}
{"compound": "COC(=O)Nc1ccc2c(c1)NC(=O)CCCC[C@H](N1CCCc3cc(CN)ccc3C1=O)c1nc-2c[nH]1", "note": "[Example 2, Methyl [(7S)-7-[7-(aminomethyl)-1-oxo-1,3,4,5-tetrahydro-2H-2-benzazepin-2-yl]-2-oxo-1,2,3,4,5,6,7,9-octahydro-11,8-(azeno)-1,9-benzodiazacyclotridecin-14-yl]carbamate trifluoroacetate]", "Ki": 0.0039}
{"compound": "COC(=O)Nc1ccc2c(c1)NC(=O)CCCC[C@H](N1Cc3cc(CN)ccc3C1=O)c1nc-2c[nH]1", "note": "[Example 3, Methyl [(7S)-7-[5-(aminomethyl)-1-oxo-1,3-dihydro-2H-isoindol-2-yl]-2-oxo-1,2,3,4,5,6,7,9-octahydro-11,8-(azeno)-1,9-benzodiazacyclotridecin-14-yl]carbamate]", "Ki": 0.07}
{"compound": "COC(=O)Nc1ccc2c(c1)NC(=O)CCCC[C@H](N1CCc3cc(CN)ccc3C1=O)c1nc-2c[nH]1", "note": "[Example 1, Methyl [(7S)-7-[6-(aminomethyl)-1-oxo-3,4-dihydroisoquinolin-2(1H)-yl]-2-oxo-1,2,3,4,5,6,7,9-octahydro-11,8-(azeno)-1,9-benzodiazacyclotridecin-14-yl]carbamate]", "Ki": 0.0024}
